Measured values published in publication PMC10508484, “Development and application of a PBPK modeling strategy to support antimalarial drug development” (CPT: Pharmacometrics & Systems Pharmacology, 2023).
Read-outs that look alike come from different tables or passages of the source.

What was measured:
UGT2B7 = test: Metabolism by UGT2B7; type: in vitro ADME, human; details: equal contribution assumed
Source text: (§1) In nearly all cases the fraction of systemic elimination metabolised by a given enzyme (fm) determined in vitro was unavailable in the literature.

[1] = In vitro flags for victim and perpetrator properties conferring DDI liability; type: in vitro ADME, human; details: in vitro flag, mainly based on in vitro determinations
CYP1A2 [2] = details: read-out: CYP1A2 Ki; ref Charman et al., 2020 1; cited from earlier work
[3] = cited from earlier work; for Cmax Obs: ref Gustafsson et al., 1983 16
[4] = Fraction unbound in human liver microsomes (fumic); details: extrapolated from value measured at 0.4 mg/mL to 0.1 mg/mL, method of Austin et al., 2002
[5] = PBPK absorption inputs (fa, ka, tlag, Qgut, Fg); parameters: species or system human; details: Relative fa (in vivo fasted AUC / fed AUC; Reuter et al., 2015 for DHA, Crevoisier et al., 1997 for mefloquine)
Source text: Initial models were built based on available physicochemical and in vitro data to give a ‘bottom-up’ prediction. Areas of uncertainty were highlighted, and the potential impact of uncertainty associated with such parameters was investigated using sensitivity analysis. Available clinical PK data were then used to evaluate and, if required, refine the initial ‘bottom-up’ model. Care was taken to split data into training and test sets wherever possible. The model verification strategy differed across compounds based on availability of different types of clinical data. […] Clinical studies used for drug model development and verification are reported in Table S2 (PK) and Table S3 (DDIs).

UGT1A9 = test: Metabolism by UGT1A9; type: in vitro ADME, human; details: equal contribution assumed
Source text: as §1

[6] = ref amodiaquine, DEAQ Hietala, 2009 2; atovaquone Nixon et al., 2013 13; DHA Batty et al., 2004 41; mefloquine, tafenoquine (also AGP) Zsila et al., 2008 54; cited from earlier work
Caco-2 cells = details: cited from earlier work
[7] = PBPK input; ref Charman et al., 2020 1; cited from earlier work
[8] = cited from earlier work
CYP2C8 = biological target: T1, CYP2C8 (Homo sapiens, UniProt P10632); test: Metabolism by CYP2C8 (CLint, fm); details: for fmCYP2C8: fraction metabolised used in the PBPK model
T1 sequence (P10632 1-490): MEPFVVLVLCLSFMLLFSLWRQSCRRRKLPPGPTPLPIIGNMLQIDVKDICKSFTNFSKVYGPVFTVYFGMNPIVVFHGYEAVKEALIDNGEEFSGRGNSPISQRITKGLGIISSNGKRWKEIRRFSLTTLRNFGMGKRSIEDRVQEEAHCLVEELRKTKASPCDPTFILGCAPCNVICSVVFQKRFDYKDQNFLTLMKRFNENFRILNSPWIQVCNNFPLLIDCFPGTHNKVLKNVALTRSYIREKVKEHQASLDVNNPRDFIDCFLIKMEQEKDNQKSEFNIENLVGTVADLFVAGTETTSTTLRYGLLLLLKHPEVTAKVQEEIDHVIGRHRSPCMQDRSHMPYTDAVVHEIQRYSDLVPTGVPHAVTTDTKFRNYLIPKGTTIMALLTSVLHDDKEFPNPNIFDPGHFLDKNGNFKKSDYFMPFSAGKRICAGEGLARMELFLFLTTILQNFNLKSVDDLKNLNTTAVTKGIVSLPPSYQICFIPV
Source text: as §1

CYP1A2 [9] = test: Metabolism by CYP1A2 (CLint, fm); type: in vitro ADME, human
Source text: as §1

CYP3A4 = CYP3A4 (Homo sapiens, UniProt P08684)
Source text: as §1

in vitro = details: human, plasma
CYP2B6 = test: Metabolism by CYP2B6 (CLint, Vmax, Km, fm); type: in vitro ADME, human
Source text: as §1

CYP2D6 [10] = biological target: T2, CYP2D6 (Homo sapiens, UniProt P10635); test: Metabolism by CYP2D6 (CLint, fm)
Source text: as §1

[11] = PBPK input; ref atovaquone oral bioavailability Lavelle et al., 1994 17; chloroquine Walker et al., 1987 29; doxycycline Fabre et al., 1966 45, Saivin et al., 1988 46; proguanil Ke et al., 2014 64; pyronaridine mass balance study Morris et al., 2015 72; cited from earlier work
[12] = Blood to plasma ratio (B:P); details: PBPK input; unpublished (in-house) data
[13] = In vivo clearance (CL IV, CL PO, CL renal, fe); details: chloroquine model
[14] = measured (0.4 mg/mL protein where stated); ref Charman et al., 2020 1; cited from earlier work
[15] = ref Charman et al., 2020 1; cited from earlier work
CYP2D6 [16] = biological target: T2, CYP2D6; test: CYP2D6 inhibition
[17] = clinically observed oral (in vivo) clearance, pyronaridine: blood, ref amodiaquine Winstanley et al., 1987 9, DEAQ Akande et al., 2015 8, Scarsi et al., 2014 35, Tarning et al., 2012 36, Orrell et al., 2008 37, DHA Na-Bangchang et al., 2004 42, lumefantrine Lefevre et al., 2002 52, Hoglund et al., 2015 53, mefloquine Charles et al., 2007 56, proguanil Jeppesen et al., 1997 34, pyronaridine Jittama
[18] = fraction metabolised used in the PBPK model
[19] = retrograde calculations from CL PO, blood
[20] = PBPK input, ref amodiaquine, DEAQ Winstanley et al., 1987 9, atovaquone Rolan et al., 1997 14, azithromycin Lalak et al., 1993 23, carboxyprimaquine Mihaly et al., 1985 26, chloroquine Walker et al., 1987 29, DHA EMA Website, 44, doxycycline Raghuram et al., 1982 48, Nguyen et al., 1989 49, mefloquine Schwartz et al., 1982 57, primaquine White, 1985 62, proguanil Jeppesen et al., 1997 34, pyrimeth

T2 sequence (P10635 whole entry): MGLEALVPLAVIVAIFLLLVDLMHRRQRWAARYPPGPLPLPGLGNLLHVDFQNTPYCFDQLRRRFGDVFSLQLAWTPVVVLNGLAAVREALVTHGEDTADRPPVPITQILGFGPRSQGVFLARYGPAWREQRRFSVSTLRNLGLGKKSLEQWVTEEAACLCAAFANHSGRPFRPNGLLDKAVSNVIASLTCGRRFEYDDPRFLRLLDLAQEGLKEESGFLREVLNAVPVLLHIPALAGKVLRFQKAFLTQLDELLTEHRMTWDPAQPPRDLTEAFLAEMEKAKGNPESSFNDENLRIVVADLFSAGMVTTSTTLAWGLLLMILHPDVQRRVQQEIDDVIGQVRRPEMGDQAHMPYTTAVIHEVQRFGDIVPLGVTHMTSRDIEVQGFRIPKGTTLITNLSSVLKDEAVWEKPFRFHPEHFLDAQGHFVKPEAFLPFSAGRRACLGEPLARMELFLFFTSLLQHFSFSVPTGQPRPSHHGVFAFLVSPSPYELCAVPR
Chain of CYP3A4 (P08684 whole entry): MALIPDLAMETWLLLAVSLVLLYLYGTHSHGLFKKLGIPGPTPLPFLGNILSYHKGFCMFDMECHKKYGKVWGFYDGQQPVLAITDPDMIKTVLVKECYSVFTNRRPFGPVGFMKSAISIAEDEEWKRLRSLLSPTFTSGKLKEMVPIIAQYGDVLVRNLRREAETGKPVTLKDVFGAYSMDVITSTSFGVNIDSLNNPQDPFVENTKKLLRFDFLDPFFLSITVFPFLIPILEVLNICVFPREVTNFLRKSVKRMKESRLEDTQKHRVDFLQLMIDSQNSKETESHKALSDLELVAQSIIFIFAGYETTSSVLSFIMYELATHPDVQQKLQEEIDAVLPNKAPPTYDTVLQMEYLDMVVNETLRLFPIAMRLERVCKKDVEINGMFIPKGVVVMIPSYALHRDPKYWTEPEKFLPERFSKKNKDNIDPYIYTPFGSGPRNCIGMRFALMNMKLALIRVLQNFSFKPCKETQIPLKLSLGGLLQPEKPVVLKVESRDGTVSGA

C[C@H]1[C@@H](O)O[C@@H]2O[C@@]3(C)CC[C@H]4[C@H](C)CC[C@@H]1[C@@]24OO3 [DHA, dihydroartemisinin]
fmUGT2B7 (UGT2B7): 50%
Risk as a perpetrator [1]: CYP1A2 inhibitor
Risk as a victim [1]: Substrate of UGT1A9 and UGT2B7
Ki (CYP1A2 [2]): 4380 nM
AUC Obs ([3]; 4 mg/kg SD, 0-inf, ref Na-Bangchang et al., 2004 20): 907 ng·h/mL
AUC Obs ([3]; 120 mg SD, 0-inf, ref Chinh et al., 2009 23): 370 ng·h/mL
AUC Obs ([3]; 180 mg SD (artesunate), 0-inf, ref Jittamala et al., 2015 15): 1400 ng·h/mL
AUC Obs ([3]; 240 mg SD, 0-inf, ref Le et al., 1999 22): 1980 ng·h/mL
AUC Obs ([3]; 300 mg SD, 0-inf, ref Na-Bangchang et al., 1997 21): 2018 ng·h/mL
fumic [4]: 0.964
fa ([5]; listed as DHA (administered as DHA)): 0.71
fa ([5]; listed as DHA (administered as artesunate)): 1
fmUGT1A9 (UGT1A9): 50%
Main binding protein [6]: AGP
Caco-2 (Papp A-B) (Caco-2 cells; calibrated against propranolol, plasma as medium for atovaquone and piperaquine, ref Charman et al., 2020 1): 49 10-6 cm/s
Log P [7]: 2.3
CL PO [8, 17]: 273.2 L/h

COc1ccc2nc3cc(Cl)ccc3c(Nc3cc(CN4CCCC4)c(O)c(CN4CCCC4)c3)c2n1 [Pyronaridine, pyronaridine]
CLint CYP2C8 (CYP2C8; derived from in vivo clearance by retrograde calculations): 0.19 µL/min/pmol
fmCYP2C8 (CYP2C8): 4.8%
fmCYP1A2 (CYP1A2 [9]; [18]): 4.7%
CLint CYP1A2 (CYP1A2 [9]; [19]): 0.09 µL/min/pmol
Risk as a perpetrator [1]: CYP2D6 and P‐gp inhibitor
Risk as a victim [1]: Substrate of CYP1A2, CYP2B6, CYP2C8, CYP2D6 and CYP3A4
fmCYP3A4 (CYP3A4): 61.1%
CLint CYP3A4 (CYP3A4; microsomes): 0.42 µL/min/pmol
fraction unbound (in vitro): 0.058
fmCYP2B6 (CYP2B6; fraction metabolised used in the PBPK model (artemether: without induction)): 7.7%
CLint CYP2B6 (CYP2B6; [19]): 0.47 µL/min/pmol
fmCYP2D6 (CYP2D6 [10]; [18]): 20.6%
CLint CYP2D6 (CYP2D6 [10]; retrograde calculations): 1.33 µL/min/pmol
fa [11]: 0.74
B:P [12]: 1.5
CL renal [8, 20]: 0.16 L/h
CL PO [8, 17]: 22.1 L/h
fe (fraction excreted unchanged in urine) ([8]; ref atovaquone Rolan et al., 1997 14, mefloquine Schwartz et al., 1982 57, primaquine White, 1985 62, proguanil (extensive metabolisers) Jeppesen et al., 1997 34, pyronaridine Wattanavijitkul, 2010 74, sulfadoxine assumed with Edstein, 1987 83): 1%

CCN(CC)CCCC(C)Nc1ccnc2cc(Cl)ccc12 (stereo not drawn) [Chloroquine, chloroquine]
fmCYP2C8 (CYP2C8): 11%
CLint CYP2C8 (CYP2C8; human): 0.27 µL/min/pmol
Risk as a perpetrator [1]: CYP2D6 inhibitor
Risk as a victim [1]: Substrate of CYP2C8 and CYP3A4; renally cleared
Cmax Obs ([3]; 300 mg infusion (over 23.5 mins) SD): 837 ng/mL
Cmax Obs ([3]; 300 mg soln. SD): 73.0 ng/mL
Cmax Obs ([3]; 300 mg tablet SD): 76.0 ng/mL
renal clearance share of elimination [13]: 57%
fumic [14]: 0.5
fa [11]: 1
B:P [15]: 3.5
CL renal [8, 20]: 24.78 L/h
CL IV ([8]; clinically observed, ref atovaquone Lavelle et al., 1994 17, chloroquine Walker et al., 1987 29, Gustafsson et al., 1983 30, doxycycline Raghuram et al., 1982 48, Nguyen et al., 1989 49, primaquine Mihaly et al., 1985 26, quinine White et al., 1983 77, Paintaud et al., 1993 78): 39.84 L/h

CCN(CC)Cc1cc(Nc2ccnc3cc(Cl)ccc23)ccc1O [Amodiaquine, amodiaquine]
Risk as a victim [1]: Substrate of CYP2C8
AUC Obs ([3]; in vivo, 540 mg): 331 ng·h/mL
Ki (CYP2D6 [16]): 450 nM
Caco-2 (Papp A-B) (Caco-2 cells; Caco-2): 9.8 10-6 cm/s
CL PO ([8]; in vivo, po): 2500 L/h
CL renal ([8]; in vivo): 3.5 L/h
